Experimental data taken from patent US20050256132A1, “Use of ER selective NF-kB inhibitors for the treatment of sepsis” (priority 2003, published 2005).

Experiments:
Creatine Kinase = assay: Creatine kinase expression in Ad5-wt-ERα infected HAECT-1 cells (Table 1); format: cell-based, human; conditions: Homo sapiens, HAECT1, read-out: Creatine Kinase EC50
Experimental: T-175 flasks of 100% confluent HAECT-1 cells (immortalized human aortic endothelial cells) were washed with 8 mL of HBSS (HEPES buffered saline solution) and infected for four hours with 6 mL of a 1:10 dilution of Ad5-wt-hERα virus (an adenovirus transfection vector that mediates CMV promoter driven expression of human ERα) in phenol red free Endothelial Cell Basal medium (Clonetics, San Diego Calif., Catalog # CC-3129) containing 0.25% bovine serum albumin (EBM-BSA). After four hours, cells were washed with EBM-BSA and incubated overnight in the same medium. Following overnight incubation, cells were washed with EBM-BSA and infected for 2 hours with 6 mL of a 1:10 dilution of Ad5-3x(NF-κB).Luc virus (Adenovirus luciferase expression vector driven by 3 repeats of the MHC NF-κb site 5′ to the thymidine kinase promoter) in EBM-BSA. […]
ERα infected HAECT-1 cells or control cells were thawed, diluted 42× in warm EBM-BSA, plated into 96-well plates at 0.1 mL/well and incubated for 4 hours at 34° C. […] Luciferase was determined on a Wallac Victor Luminometer (Gaithersburg, Md.) using 10 μL of lysate and mixing with 100 μL of Promega Luciferase Assay reagent. Creatine kinase was determined from the rate of increase in A340 following addition of 100 μL of CK assay reagent (Sigma, cat. No 47-10) to the remainder of the cell lysate. […]

CK = CK activity in lysate of ERα expressing HAECT-1 cells; format: cell-based, human; conditions: FIG. 1D
Experimental: (A) The effect of compound 67 on NF-κB mediated luciferase reporter activity in HAECT-1 cells expressing ERα. […] (C) The effect of compound 67 on the human IL-6 promoter luciferase reporter activity in HAECT-1 cells expressing either ERα (squares) or ERβ (diamonds). (D) The remaining lysate from (A) was used to determine CK activity.
HAECT-1 cells (Chadwick C C, et al., Proc Natl Acad Sciences, 2005, 102(7): 2543-2548) were cultured in EGM (GIBCO, Rockville, Md.) containing 10% FBS, 1% GlutaMAX and 0.1% Antimycotic-Antibiotic in Falcon T-175 culture flasks at 34° C. in 5% CO2 and infected for four hours with Ad5-wt-ER virus. After overnight recovery, the cells were infected for 2 hours with the Ad5-3x(NFκB).Luc or Ad5-IL6.Luc virus. Compound 67 and 2 ng/ml IL-1 were added to the cells for 15-20 h and the cell lysate was assayed for luciferase activity and evaluated for CK expression (Stanbio Laboratories, Texas). The values are reported as mean±SEM with n=4 from at least 3 independent experiments.

EC50 (Creatine Kinase): 5.8 nM | EC50 (CK; Homo sapiens, HAECT1): 2 nM
Structure (SMILES): C[C@]12CC[C@@H]3c4ccc(O)cc4CC[C@H]3[C@@H]1CC[C@@H]2O [Example E2, 17β-estradiol, reference compound]
stimulation of CK activity (CK): approximately 1.7 fold
